Values quoted from earlier work in patent US20060141030A1, “Method and composition for stable and controlled delivery of (-)-hydroxycitric acid” (priority 2003, published 2006).

Experiments:
[1] = tested on: human hepatoma cell line Hep G2
[2] = tested on: experimental animals; conditions: single large oral dose or two divided oral doses totaling one fourth of it; high-sugar diet
[3] = tested on: test subjects; conditions: chronic administration; resting and exercising conditions
[4] = tested on: middle-aged rats; conditions: 30% fat diet

## O=C(O)CC(O)(C(=O)O)C(O)C(=O)O (single isomer, unassigned; (-)) [HCA, (−)-Hydroxycitric acid]
[1]; Hep G2, HCA 0.5 mM or higher, 2.5 h and 18 h incubations
  incorporation of [1,5-14C]citrate into fatty acids and cholesterol: strongly inhibited
[1]; Hep G2, incorporation from 3H2O
  cholesterol biosynthesis, of the control value: 27%
[2]
  reduction in food consumption: ≥ 10%
[3]
  respiratory exchange ratio: significantly lower

## O=C([O-])CC(O)(C(=O)[O-])C(O)C(=O)[O-].[K+].[K+].[K+] (centres unmarked) [potassium HCA]
[4]
  protein and fat as percentage of body weight: increased protein as a percentage of body weight while reducing fat as a percentage of body weight
